These compounds were tested on rats rendered neuropathic via the SNI Model (assay: Analgesic effect in spared nerve injury (SNI) model of neuropathic pain). Conditions: mean ± standard error of the mean.
Assay type: in vivo, Sprague-Dawley rats
Protocol: (§1) Adult, male Sprague-Dawley rats were obtained from Charles River Laboratories (Wilmington, Mass.) and housed under standard conditions at the Institut Armand-Frappier (Laval, QC). Food and water were provided to experimental animals ad libitum, and rats weighed 175-200 grams at the time of assessment.
(§2) Compounds were prepared for intraperitoneal administration by dissolving them in a vehicle of hydroxypropyl methylcellulose (Sigma, St-Louis, Mo.); total volume of solution administered to rats was 10 ml/kg.
Neuropathic pain was induced in rats via spared nerve injury (SNI) of the left sciatic nerve in accordance with the procedure described by Decosterd & Woolf (Pain 2000; 87(2):149-58). Briefly, under isoflurane anesthesia, the sciatic nerve was exposed by dissection at the level of lower thigh, and a lesion of two of the three terminal branches of the nerve (tibial and common peroneal nerves) were performed leaving the remaining sural nerve intact. The incision was closed-up using simple suturing, and the rats allowed to recover.
(§3) After approximately two weeks, a stable allodynia to blunt mechanical stimuli was identified in the hind paw ipsilateral to the SNI or CCI, manifested as a reduction of 50% withdrawal threshold, and identified using the Von Frey technique, as described by Chaplan et al. (J. Neurosci. Methods 1994; 53(1):55-63), or the Hargreaves method, as described by Hargreaves et al. (Pain 1988; 32(1):77-88). Rats were considered to be fully neuropathic upon displaying a 50% withdrawal threshold of ≦3.5 grams consistently over the course of 72 hours.
(§4) Compounds were administered to neuropathic rats via acute local delivery in the intraperitoneal space or by oral gavage.
With `Cc1cc(O)nc(SCc2c(Cl)ccnc2Cl)n1` [2-{[(2,4-dichloropyridin-3-yl)methyl]sulfanyl}-6-methylpyrimidin-4-ol] the “Peak 50% withdrawal threshold” value was 7.74 ± 2.13 g.
With `Oc1cc(C(F)(F)F)nc(SCc2c(Cl)cncc2Cl)n1` [2-{[(3,5-dichloropyridin-4-yl)methyl]sulfanyl}-6-(trifluoromethyl)pyrimidin-4-ol] the “Peak 50% withdrawal threshold” value was 5.77 ± 1.01 g.
In the case of `Cc1cc(O)nc(SCc2c(Cl)cncc2Cl)n1` [2-{[(3,5-dichloropyridin-4-yl)methyl]sulfanyl}-6-methylpyrimidin-4-ol], the “Peak 50% withdrawal threshold” value was 9.13 ± 1.60 g.
`CCc1cncc(CC)c1CSc1nc(O)cc(C(F)(F)F)n1` [2-{[(3,5-diethylpyridin-4-yl)methyl]sulfanyl}-6-(trifluoromethyl)pyrimidin-4-ol] was tested, and the “Peak 50% withdrawal threshold” value was 6.04 ± 1.17 g.
For `CCc1cncc(Cl)c1CSc1nc(C)cc(O)n1` [2-{[(3-chloro-5-ethylpyridin-4-yl)methyl]sulfanyl}-6-methylpyrimidin-4-ol], the “Peak 50% withdrawal threshold” value was 8.73 ± 1.75 g.
With `Cc1cc(O)nc(SCc2c(Cl)ccc(Cl)c2Cl)n1` [6-methyl-2-{[(2,3,6-trichlorophenyl)methyl]sulfanyl}pyrimidin-4-ol] the “Peak 50% withdrawal threshold” value was 6.24 ± 1.48 g.

Each compound was assayed on mice subjected to the Minimal Clonic Seizure model (assay: Minimal Clonic Seizure test (psychomotor seizure model of partial epilepsy, 6 Hz)). Conditions: 15 minutes post-treatment, 100 mg/kg intraperitoneally, 32 mA, 3 seconds.
Assay type: in vivo
Protocol: Adult mice are pretreated with 100 mg/kg of test compound, acutely administered intraperitoneally. At varying times (15, 30, 60, 120 and 240 minutes post-treatment), animals are challenged with sufficient current (32 mA, 6 Hz, for 3 seconds) delivered through corneal electrodes to elicit a psychomotor seizure. Untreated mice will display seizures characterized by a minimal clonic phase followed by stereotyped, automatistic behaviors similar to the aura of human patients with partial seizures. Animals not displaying this behavior are considered protected (Barton et al., Epilepsy Res. 2001; 47(3):217-27). Results are expressed as the number of animal protected out of the number of animal tested over time.
With `Cc1cc(O)nc(SCc2c(Cl)cncc2Cl)n1` [2-{[(3,5-dichloropyridin-4-yl)methyl]sulfanyl}-6-methylpyrimidin-4-ol] the “Protected Animals/tested animals” value was 3/4.
In the case of `Cc1cc(O)nc(SCc2c(Cl)ccc(Cl)c2Cl)n1` [6-methyl-2-{[(2,3,6-trichlorophenyl)methyl]sulfanyl}pyrimidin-4-ol], the “Protected Animals/tested animals” value was 1/4.

Same assay, conditions: 30 minutes post-treatment, 100 mg/kg intraperitoneally, 32 mA, 3 seconds
In the case of `Cc1cc(O)nc(SCc2c(Cl)cncc2Cl)n1` [2-{[(3,5-dichloropyridin-4-yl)methyl]sulfanyl}-6-methylpyrimidin-4-ol], the “Protected Animals/tested animals” value was 3/4.
`Cc1cc(O)nc(SCc2c(Cl)ccc(Cl)c2Cl)n1` [6-methyl-2-{[(2,3,6-trichlorophenyl)methyl]sulfanyl}pyrimidin-4-ol] was tested, and the “Protected Animals/tested animals” value was 3/4.

Same assay, conditions: 60 minutes post-treatment, 100 mg/kg intraperitoneally, 32 mA, 3 seconds
For `Cc1cc(O)nc(SCc2c(Cl)cncc2Cl)n1` [2-{[(3,5-dichloropyridin-4-yl)methyl]sulfanyl}-6-methylpyrimidin-4-ol], the “Protected Animals/tested animals” value was 3/4.
`Cc1cc(O)nc(SCc2c(Cl)ccc(Cl)c2Cl)n1` [6-methyl-2-{[(2,3,6-trichlorophenyl)methyl]sulfanyl}pyrimidin-4-ol] was tested, and the “Protected Animals/tested animals” value was 2/4.

Same assay, conditions: 120 minutes post-treatment, 100 mg/kg intraperitoneally, 32 mA, 3 seconds
In the case of `Cc1cc(O)nc(SCc2c(Cl)cncc2Cl)n1` [2-{[(3,5-dichloropyridin-4-yl)methyl]sulfanyl}-6-methylpyrimidin-4-ol], the “Protected Animals/tested animals” value was 1/4.
`Cc1cc(O)nc(SCc2c(Cl)ccc(Cl)c2Cl)n1` [6-methyl-2-{[(2,3,6-trichlorophenyl)methyl]sulfanyl}pyrimidin-4-ol] was tested, and the “Protected Animals/tested animals” value was 1/4.

Same assay, conditions: 240 minutes post-treatment, 100 mg/kg intraperitoneally, 32 mA, 3 seconds
For `Cc1cc(O)nc(SCc2c(Cl)cncc2Cl)n1` [2-{[(3,5-dichloropyridin-4-yl)methyl]sulfanyl}-6-methylpyrimidin-4-ol], the “Protected Animals/tested animals” value was 0/4.
`Cc1cc(O)nc(SCc2c(Cl)ccc(Cl)c2Cl)n1` [6-methyl-2-{[(2,3,6-trichlorophenyl)methyl]sulfanyl}pyrimidin-4-ol] was tested, and the “Protected Animals/tested animals” value was 0/4.

These compounds were tested on rats rendered neuropathic via the CCI model (assay: Analgesic effect in chronic constriction injury (CCI) model of neuropathic pain). Conditions: mean ± standard error of the mean.
Assay type: in vivo, Sprague-Dawley rats
Protocol: as §1, §2
Alternatively, neuropathic pain was induced in rats via chronic constriction injury (CCI) of the left sciatic nerve with the procedure described by Bennett & Xie (Pain 1988; 33(1):87-107). Briefly, under isoflurane anaesthesia, the sciatic nerve was exposed by dissection at the level of the lower thigh and four loose ligatures (USP 4/0, Braun Melsaugen, FRG) were implanted around the nerve—with due attention not to interrupt the epineural circulation. The incision was closed-up using simple suturing, and the rats allowed to recover.
as §3, §4
`CCc1ncccc1CSc1nc(C)cc(O)n1` [2-{[(2-ethylpyridin-3-yl)methyl]sulfanyl}-6-methylpyrimidin-4-ol] was tested, and the “Peak paw withdrawal latency” value was 10.46 ± 1.16 s.
For `Oc1cc(C(F)(F)F)nc(SCc2c(Cl)cncc2Cl)n1` [2-{[(3,5-dichloropyridin-4-yl)methyl]sulfanyl}-6-(trifluoromethyl)pyrimidin-4-ol], the “Peak paw withdrawal latency” value was 11.7 ± 1.43 s.
In the case of `Cc1cc(O)nc(SCc2c(Cl)cncc2Cl)n1` [2-{[(3,5-dichloropyridin-4-yl)methyl]sulfanyl}-6-methylpyrimidin-4-ol], the “Peak paw withdrawal latency” value was 14.49 ± 1.24 s.
With `Cc1cc(O)nc(SCc2nn(C)cc2Cl)n1` [2-{[(4-chloro-1-methyl-1H-pyrazol-3-yl)methyl]sulfanyl}-6-methylpyrimidin-4-ol] the “Peak paw withdrawal latency” value was 11.98 ± 1.71 s.
In the case of `CCc1ncsc1CSc1nc(O)cc(C(F)(F)F)n1` [Example 164, 2-{[(4-ethyl-1,3-thiazol-5-yl)methyl]sulfanyl}-6-(trifluoromethyl)pyrimidin-4-ol], the “Peak paw withdrawal latency” value was 10.45 ± 0.47 s.
